In this assay the test system is Leishmania tropica. In words: Growth inhibition of multidrug-resistant Leishmania tropica overexpressing P-glycoprotein-like transporter at 60 uM. The format is functional. Also noted: scale not given: the % may be the effect or the level left.

SMILES strings stand for the structures.

For the compound `CC(=O)OC[C@]12[C@H](OC(C)=O)C(=O)[C@@H]3[C@@H](OC(C)=O)[C@]1(O[C@@]3(C)COC(C)=O)[C@@](C)(O)[C@@H](OC(C)=O)[C@H](OC(C)=O)[C@@H]2OC(C)=O`, the Activity is listed as 28%.

For the origin of these results see ChEMBL document CHEMBL1159375, “Absolute configuration and complete assignment of 13C NMR data for new sesquiterpenes from Maytenus chiapensis” (2003).
